Legend:
PI3Kα = PI3Kα (Homo sapiens (Human), UniProt P42336); conditions: read-out: PI3Kα AlphaScreen ® Ki
[1] = biological target: ProfilerPro Kinase Selectivity Assay Kit kinases (Homo sapiens, UniProt P08581); type: biochemical; conditions: cMET; 1 μM compound concentration
Procedure: (§1) Compounds were profiled using a LabChip® EZ Reader II platform and a ProfilerPro Kinase Selectivity Assay Kit (Caliper Lifesciences Inc., Hopkinton, Mass.). Compounds were tested at a concentration of 1 M in duplicate, with mean data reported as percent of control (POC).

[2] = biological target: ProfilerPro Kinase Selectivity Assay Kit kinases (Homo sapiens, UniProt Q15418); type: biochemical; conditions: RSK1; 1 μM compound concentration
Procedure: as §1

[3] = biological target: ProfilerPro Kinase Selectivity Assay Kit kinases (Homo sapiens, UniProt Q13188); type: biochemical; conditions: MST2; 1 μM compound concentration
Procedure: as §1

[4] = biological target: ProfilerPro Kinase Selectivity Assay Kit kinases (Homo sapiens, UniProt Q8IW41); type: biochemical; conditions: PRAK; 1 μM compound concentration
Procedure: as §1

[5] = biological target: ProfilerPro Kinase Selectivity Assay Kit kinases (Homo sapiens, UniProt O75116); type: biochemical; conditions: ROCK2; 1 μM compound concentration
Procedure: as §1

[6] = biological target: ProfilerPro Kinase Selectivity Assay Kit kinases (Homo sapiens, UniProt P31751); type: biochemical; conditions: AKT2; 1 μM compound concentration
Procedure: as §1

[7] = system: ProfilerPro Kinase Selectivity Assay Kit kinases; type: biochemical; conditions: 1 μM compound concentration
Procedure: as §1

[8] = biological target: ProfilerPro Kinase Selectivity Assay Kit kinases (Homo sapiens, UniProt Q13627); type: biochemical; conditions: DYRK1a; 1 μM compound concentration
Procedure: as §1

[9] = biological target: ProfilerPro Kinase Selectivity Assay Kit kinases (Homo sapiens, UniProt P48730); type: biochemical; conditions: CK1 delta; 1 μM compound concentration
Procedure: as §1

[10] = biological target: ProfilerPro Kinase Selectivity Assay Kit kinases (Homo sapiens, UniProt P06213); type: biochemical; conditions: INSR; 1 μM compound concentration
Procedure: as §1

[11] = biological target: ProfilerPro Kinase Selectivity Assay Kit kinases (Homo sapiens, UniProt P49137); type: biochemical; conditions: MAPKAPK2; 1 μM compound concentration
Procedure: as §1

[12] = biological target: ProfilerPro Kinase Selectivity Assay Kit kinases (Homo sapiens, UniProt Q16566); type: biochemical; conditions: CAMK4; 1 μM compound concentration
Procedure: as §1

[13] = biological target: ProfilerPro Kinase Selectivity Assay Kit kinases (Homo sapiens, UniProt Q16539); type: biochemical; conditions: p38 alpha; 1 μM compound concentration
Sequence of ProfilerPro Kinase Selectivity Assay Kit kinases (Homo sapiens, UniProt Q16539) (Q16539 2-360 limits assumed): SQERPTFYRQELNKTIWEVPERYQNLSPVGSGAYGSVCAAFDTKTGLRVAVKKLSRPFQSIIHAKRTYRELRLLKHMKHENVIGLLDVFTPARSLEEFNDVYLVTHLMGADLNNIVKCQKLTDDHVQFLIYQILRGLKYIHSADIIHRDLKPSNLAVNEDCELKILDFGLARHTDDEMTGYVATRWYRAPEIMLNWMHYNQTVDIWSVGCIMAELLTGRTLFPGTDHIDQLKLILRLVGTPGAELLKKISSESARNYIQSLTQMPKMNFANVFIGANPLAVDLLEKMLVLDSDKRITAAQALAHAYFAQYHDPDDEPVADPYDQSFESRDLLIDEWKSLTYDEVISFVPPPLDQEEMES
Procedure: as §1

[14] = biological target: ProfilerPro Kinase Selectivity Assay Kit kinases (Homo sapiens, UniProt P49841); type: biochemical; conditions: GSK3 beta; 1 μM compound concentration
Procedure: as §1

Sequence of ProfilerPro Kinase Selectivity Assay Kit kinases (Homo sapiens, UniProt P08581) (P08581 25-1390 limits assumed): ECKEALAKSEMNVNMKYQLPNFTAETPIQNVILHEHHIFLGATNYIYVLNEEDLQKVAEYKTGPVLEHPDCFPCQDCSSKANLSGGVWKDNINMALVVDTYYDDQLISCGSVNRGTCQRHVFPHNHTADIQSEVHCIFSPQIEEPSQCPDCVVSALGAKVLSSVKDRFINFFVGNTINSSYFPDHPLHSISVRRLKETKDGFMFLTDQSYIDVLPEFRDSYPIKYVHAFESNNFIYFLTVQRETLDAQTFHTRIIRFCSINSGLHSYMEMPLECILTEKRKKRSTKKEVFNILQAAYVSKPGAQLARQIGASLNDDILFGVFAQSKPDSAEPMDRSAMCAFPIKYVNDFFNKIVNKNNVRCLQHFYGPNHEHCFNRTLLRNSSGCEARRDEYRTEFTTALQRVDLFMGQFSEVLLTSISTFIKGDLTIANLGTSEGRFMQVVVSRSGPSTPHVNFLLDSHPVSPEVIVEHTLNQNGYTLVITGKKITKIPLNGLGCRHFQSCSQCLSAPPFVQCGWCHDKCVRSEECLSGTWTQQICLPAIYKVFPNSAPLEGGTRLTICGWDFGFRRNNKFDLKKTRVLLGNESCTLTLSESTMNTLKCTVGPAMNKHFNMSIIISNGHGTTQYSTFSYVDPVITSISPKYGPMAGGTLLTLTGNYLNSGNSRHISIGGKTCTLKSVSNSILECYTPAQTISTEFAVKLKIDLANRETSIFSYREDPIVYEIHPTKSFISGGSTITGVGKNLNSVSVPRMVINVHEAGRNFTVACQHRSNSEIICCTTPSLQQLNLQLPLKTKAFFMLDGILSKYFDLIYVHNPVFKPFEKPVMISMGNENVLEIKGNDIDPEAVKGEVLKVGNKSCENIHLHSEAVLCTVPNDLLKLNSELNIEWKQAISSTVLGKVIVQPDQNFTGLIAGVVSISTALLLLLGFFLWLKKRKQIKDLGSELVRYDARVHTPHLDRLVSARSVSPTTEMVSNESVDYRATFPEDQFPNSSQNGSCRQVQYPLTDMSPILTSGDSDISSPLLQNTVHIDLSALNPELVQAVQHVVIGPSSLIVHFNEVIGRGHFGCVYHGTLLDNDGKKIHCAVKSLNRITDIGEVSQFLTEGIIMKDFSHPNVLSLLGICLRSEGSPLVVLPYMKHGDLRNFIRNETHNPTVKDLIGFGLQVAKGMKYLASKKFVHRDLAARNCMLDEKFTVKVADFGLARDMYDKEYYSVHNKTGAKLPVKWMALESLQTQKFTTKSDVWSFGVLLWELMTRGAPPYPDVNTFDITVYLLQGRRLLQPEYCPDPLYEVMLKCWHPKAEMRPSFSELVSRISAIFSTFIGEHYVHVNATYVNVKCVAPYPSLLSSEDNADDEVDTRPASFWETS
Sequence of PI3Kα (P42336 whole entry): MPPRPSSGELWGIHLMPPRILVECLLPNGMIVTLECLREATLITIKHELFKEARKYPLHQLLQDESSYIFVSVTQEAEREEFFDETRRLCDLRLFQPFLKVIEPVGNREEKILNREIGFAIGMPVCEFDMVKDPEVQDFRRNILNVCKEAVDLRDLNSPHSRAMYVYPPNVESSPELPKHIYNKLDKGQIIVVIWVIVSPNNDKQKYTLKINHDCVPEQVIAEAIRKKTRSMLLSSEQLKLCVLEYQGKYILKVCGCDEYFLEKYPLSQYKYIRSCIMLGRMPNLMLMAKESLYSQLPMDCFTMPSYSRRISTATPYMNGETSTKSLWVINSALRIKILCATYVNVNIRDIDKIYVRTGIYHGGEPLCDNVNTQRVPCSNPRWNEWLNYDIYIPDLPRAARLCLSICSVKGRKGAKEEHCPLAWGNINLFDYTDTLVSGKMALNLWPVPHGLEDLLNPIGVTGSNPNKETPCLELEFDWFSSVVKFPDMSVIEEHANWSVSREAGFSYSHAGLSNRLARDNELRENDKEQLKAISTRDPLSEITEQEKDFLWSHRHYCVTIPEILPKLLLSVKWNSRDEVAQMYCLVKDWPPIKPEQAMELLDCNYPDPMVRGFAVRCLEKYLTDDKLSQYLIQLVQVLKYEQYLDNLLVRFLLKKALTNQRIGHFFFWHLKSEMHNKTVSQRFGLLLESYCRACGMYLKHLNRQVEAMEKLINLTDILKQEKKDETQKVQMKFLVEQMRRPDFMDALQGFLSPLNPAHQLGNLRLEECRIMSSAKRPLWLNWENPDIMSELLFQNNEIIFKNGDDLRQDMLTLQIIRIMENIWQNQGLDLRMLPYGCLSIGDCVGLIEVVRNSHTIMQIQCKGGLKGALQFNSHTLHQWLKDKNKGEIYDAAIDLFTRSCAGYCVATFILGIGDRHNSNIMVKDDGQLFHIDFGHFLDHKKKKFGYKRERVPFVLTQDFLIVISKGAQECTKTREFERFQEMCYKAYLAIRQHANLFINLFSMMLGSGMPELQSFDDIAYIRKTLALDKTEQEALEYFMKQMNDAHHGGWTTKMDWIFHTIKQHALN
Sequence of PI3Kα (P27986 whole entry partner): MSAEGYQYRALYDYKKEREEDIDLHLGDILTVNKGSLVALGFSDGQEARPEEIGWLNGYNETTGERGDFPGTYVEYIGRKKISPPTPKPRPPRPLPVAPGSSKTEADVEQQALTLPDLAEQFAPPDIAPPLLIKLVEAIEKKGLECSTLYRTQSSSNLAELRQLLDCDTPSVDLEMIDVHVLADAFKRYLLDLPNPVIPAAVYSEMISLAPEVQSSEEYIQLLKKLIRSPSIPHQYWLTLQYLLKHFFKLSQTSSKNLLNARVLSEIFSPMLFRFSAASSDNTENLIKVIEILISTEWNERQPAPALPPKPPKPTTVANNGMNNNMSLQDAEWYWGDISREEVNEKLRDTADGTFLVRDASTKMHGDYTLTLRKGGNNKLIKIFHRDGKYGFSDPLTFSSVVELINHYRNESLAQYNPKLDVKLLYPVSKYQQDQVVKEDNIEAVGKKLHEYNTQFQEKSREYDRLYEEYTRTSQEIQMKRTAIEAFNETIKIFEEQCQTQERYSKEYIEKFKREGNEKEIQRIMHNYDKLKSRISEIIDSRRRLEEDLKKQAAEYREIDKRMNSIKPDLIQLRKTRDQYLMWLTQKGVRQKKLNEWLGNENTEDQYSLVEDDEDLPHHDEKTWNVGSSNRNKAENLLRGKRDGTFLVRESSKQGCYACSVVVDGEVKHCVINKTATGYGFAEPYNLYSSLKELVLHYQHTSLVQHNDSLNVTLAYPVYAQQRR

Compound	Ki (PI3Kα)	POC (Percent of control) cMET [1]	POC (Percent of control) RSK1 [2]	POC (Percent of control) MST2 [3]	POC (Percent of control) PRAK [4]	POC (Percent of control) ROCK2 [5]	POC (Percent of control) AKT2 [6]	POC (Percent of control) AMPK [7]	POC (Percent of control) CAMK2 [7]	POC (Percent of control) PKC beta2 [7]	POC (Percent of control) TAK1 [7]	POC (Percent of control) DYRK1a [8]	POC (Percent of control) CK1 delta [9]	POC (Percent of control) INSR [10]	POC (Percent of control) MAPKAPK2 [11]	POC (Percent of control) CAMK4 [12]	POC (Percent of control) p38 alpha [13]	POC (Percent of control) GSK3 beta [14]
c1cnc(Nc2cccc3[nH]ncc23)c(-c2ncnc3[nH]cnc23)c1 [Example 18, N-(3-(9H-Purin-6-yl)Pyridin-2-yl)-1H-Indazol-4-Amine]	22.6 µM	104 POC	96 POC	96 POC	95 POC	98 POC	93 POC	83 POC	90 POC	91 POC	97 POC	59 POC	35 POC	90 POC	93 POC	71 POC	86 POC	92 POC
Cc1nc(N)nc(-c2cccnc2Nc2cccc(O)c2)n1 [Example 23, 3-(3-(4-Amino-6-Methyl-1,3,5-Triazin-2-yl)Pyridin-2-Ylamino)Phenol]	–	104 POC	103 POC	101 POC	97 POC	101 POC	112 POC	98 POC	108 POC	92 POC	102 POC	93 POC	70 POC	98 POC	99 POC	98 POC	104 POC	96 POC
COc1ccc(Nc2ncccc2-c2nc(C)nc3[nH]cnc23)cn1 [Example 58, N-(6-methoxypyridin-3-yl)-3-(2-methyl-9H-purin-6-yl)pyridin-2-amine]	–	103 POC	94 POC	100 POC	84 POC	100 POC	96 POC	99 POC	103 POC	161 POC	107 POC	93 POC	104 POC	104 POC	96 POC	95 POC	98 POC	101 POC
Cc1nc(N)cc(-c2cccnc2Nc2cccc3[nH]ncc23)n1 [Example 27, N-(3-(6-Amino-2-Methylpyrimidin-4-yl)Pyridin-2-yl)-1H-Indazol-4-Amine]	0.13 µM	95 POC	89 POC	84 POC	98 POC	95 POC	95 POC	83 POC	116 POC	166 POC	102 POC	92 POC	43 POC	71 POC	101 POC	56 POC	104 POC	80 POC
Cc1nc(-c2cccnc2Nc2cccc3[nH]ncc23)c2nc[nH]c2n1 [Example 57, N-(3-(2-methyl-9H-purin-6-yl)pyridin-2-yl)-1H-indazol-4-amine]	–	100 POC	97 POC	95 POC	100 POC	95 POC	98 POC	92 POC	109 POC	97 POC	97 POC	91 POC	55 POC	94 POC	99 POC	93 POC	100 POC	101 POC
Cc1nc(N)nc(-c2cccnc2Nc2cccc3[nH]ccc23)n1 [Example 22, N-(3-(4-Amino-6-Methyl-1,3,5-Triazin-2-yl)Pyridin-2-yl)-1H-Indol-4-Amine]	–	106 POC	100 POC	98 POC	106 POC	94 POC	97 POC	92 POC	118 POC	96 POC	99 POC	96 POC	91 POC	96 POC	98 POC	95 POC	101 POC	94 POC
COc1ccc(Nc2ncccc2-c2ncnc3[nH]cnc23)cn1 [Example 20, N-(6-Methoxypyridin-3-yl)-3-(9H-Purin-6-yl)Pyridin-2-Amine]	–	106 POC	97 POC	95 POC	99 POC	101 POC	92 POC	93 POC	111 POC	104 POC	99 POC	102 POC	93 POC	97 POC	100 POC	100 POC	93 POC	95 POC

Source: patent publication US8772480B2, “Inhibitors of PI3 kinase and/or mTOR” (priority 2009, dated 2014)
